Patent publication US5462965A, “Use of heterocyclic amino-alcohol compounds for treatment of CNS diseases” (GD Searle & Co., priority 1992, dated 1995)
Read-outs that look alike come from different tables or passages of the source.

Key:
[1] = tested on: NMDA receptor; conditions: C. Carter et al, 1988; cited from earlier work
[2] = biological target: polyamine domain of the NMDA receptor-complex; experiment: Binding of [125I]ifenprodil to rat cortical membranes (polyamine domain interaction)
Method: The NMDA receptor-ionophore complex consists of a number of interacting domains, including one for polyamines where ifenprodil binds to exert its noncompetitive antagonism. Ifenprodil was iodinated with Na^125 I/chloramine-T, purified and its binding characterized.
(§1) Membranes were prepared from freshly dissected brains of adult male Sprague-Dawley rats (175-250 g).
^125 I]Ifenprodil: Crude membranes were prepared from freshly dissected cerebral cortices as described elsewhere [P. M. Beart et al, Neurosci. Lett., 124, 187-189 (1991)]. Briefly, assays were performed in 5 mM Tris HCl pH 7.7 containing [^125 I]ifenprodil (20,000 dpms, ~20 pM) and cortical membranes (0.5 mg wet wt.) in a final volume of 0 5 mL Incubations were for 30 min at 20° C., in triplicate, employing 12 concentrations of competing drugs. Non-specific binding was defined with 10 mM spermine. Assays were terminated by rapid filtration through GF/B filter paper and washing [Beart et al, Id., (1991)].
Binding data were analyzed by the iterative curve fitting programs EBDA and LIGAND as fully described elsewhere [Beart et al, Id., (1989)].

[3] = tested on: sigma site; experiment: Sigma site binding: inhibition of R(+)-[3H]3-PPP binding; parameters: species or system rat; conditions: for affinity for the high affinity sigma site / inhibition of binding of R(+)-[3H]3-PPP / model describing the interaction with the site labelled by R(+)-[3H]3-PPP: in words; for affinity for the high affinity sigma site: computer-assisted analyses
Method: as §1
R(+-^3 H]3-PPP: Crude membranes were prepared from whole brain (minus cerebellum) as described previously [P. M. Beart et al, J. Neurochem., 53, 779-788 (1989)]. A filtration binding assay was employed under similar conditions to those of Largent et al (1986) with 3 nM R (+)-[^3 H]-3-PPP and a 90 min. incubation at 25° C. (Beart et al, 1989). Non-specific binding was defined with 10 μ1,3-di(2-tolyl)guanidine (DTG).
Binding data were analyzed by the iterative curve fitting programs EBDA and LIGAND as fully described elsewhere [Beart et al, Id., (1989)]. Results obtained from experiments examining spermidine-stimulated binding of ^3 H]TCP were analyzed by the program FLEXIFIT [V. Guardabasso et al, FASEB J., 2, 209-215 (1988)] which iteratively fits data to a sigmoidal model providing estimates of IC50 and slope for the drug under study.

[4] = biological target: NMDA receptor-ionophore complex (polyamine domain / NMDA ionophore); experiment: Spermidine (polyamine)-stimulated [3H]TCP binding, functional model of coupling of the polyamine domain to the NMDA ionophore; conditions: spermidine-stimulated [3H]TCP binding, rat cortex; for IC50: at least two independent experiments
Method: Polyamine-stimulated [^3 H]TCP: Crude synaptic ("buffy coat") membranes were prepared from freshly dissected cerebral cortices. Membrane preparations were extensively washed employing 3 freeze-thaw cycles. The final pellet was stored at -70° C. for 1-7 days prior to assay. On the day of assay, the membrane pellet was washed twice by resuspension and centrifugation (45,000 g, 10 min. ). […] Assays were terminated by rapid vacuum filtration through GF/B filter paper (pre-soaked in 0.5% aqueous polyethyleneimine) in a Brandel M-48R Cell Harvester and thorough washing with ice-cold 5 mM Tris HCl pH 7.7.

[5] = Arch. Int. Pharm., 1983; cited from earlier work
[6] = in certain cases and mostly high doses; cited from earlier work
[7] = tested on: sigma site; conditions: P. C. Contreras et al, 1990; cited from earlier work
[8] = tested on: sigma site; conditions: J. Benavides et al, 1990; cited from earlier work
[9] = tested on: NMDA receptor complex; conditions: [3H]TCP and [3H]dizocilpine (MK-801); cited from earlier work
[10] = rat cortical membranes, mean ± s.e.m., n = 3 or 4, read-out: [125I] IFENPRODIL Kd
[11] = one site fit, pooled data, n = 2 independent experiments, read-out: KG = Dissociation constant for one site fit
[12] = two site fit, fitted better to 2 site model (P < 0.05)
[13] = two site fit, fitted better to 2 site model (P < 0.05), read-out: KH = Dissociation constant at high affinity site for two site fit
[14] = two site fit, fitted better to 2 site model (P < 0.05), read-out: KL = Dissociation constant at low affinity site for two site fit
[15] = two site fit, value in parentheses (exception to better 2 site fit)
[16] = two site fit, value in parentheses (exception to better 2 site fit), read-out: KH = Dissociation constant at high affinity site for two site fit
[17] = two site fit, value in parentheses (exception to better 2 site fit), read-out: KL = Dissociation constant at low affinity site for two site fit
[18] = one site fit, *one experiment, read-out: KG = Dissociation constant for one site fit
[19] = n=4 (spermine), n=3 (spermidine), read-out: dissociation constants for spermine and spermidine (inhibition of specific [125I]ifenprodil binding)

Compound: 1-(4chlorophenyl)-2-[1-(4-fluorophenyl)piperidinyl]ethanol
- NMDA receptor antagonism [1]: noncompetitive NMDA receptor antagonists

Compound: C[C@H](NCCCCc1ccccc1)[C@H](O)c1ccc2c(c1)CCS2 (relative stereo) [Compound 7]
- Kd [2, 10]: 3600 ± 300 nM
- affinity for the high affinity sigma site [3]: appreciable affinity
- Kd [3, 11]: 170 nM
- % RH = Percent of high affinity binding sites for two site fit [3, 12]: 66%
- Kd [3, 13]: 44 nM
- Kd [3, 14]: 11000 nM
- IC50 [4]: 8200 nM
- antihypertensive effect [5]: antihypertensive effect
- anxiolytic activity [5]: anxiolytic activity

Compound: C[C@H](NCCCCc1ccccc1)[C@@H](O)c1ccc2c(c1)CCS2 (relative stereo) [Compound 183]
- Kd [2, 10]: 9300 ± 5400 nM
- Kd [3, 11]: 450 nM
- % RH = Percent of high affinity binding sites for two site fit [3, 15]: 84%
- Kd [3, 16]: 300 nM
- Kd [3, 17]: 130000 nM
- SPERMIDINE [3H] TCP IC50 (class symbol: inhibitory at 50 μM) [4]: +

Compound: CC(NCCCCc1ccccc1)C(O)c1ccc2c(c1)CCS2 (single isomer, unassigned) [Compound 184]
- Kd [2, 10]: 6300 ± 1800 nM
- affinity for the high affinity sigma site [3]: appreciable affinity
- Kd [3, 11]: 230 nM
- % RH = Percent of high affinity binding sites for two site fit [3, 12]: 54%
- SPERMIDINE [3H] TCP IC50 (class symbol: inhibitory at 50 μM) [4]: +

Compound: CC(NCCCCc1ccccc1)C(O)c1ccc2c(c1)CCS2 (single isomer, unassigned) [Compound 185]
- Kd [2, 10]: 3500 ± 1100 nM
- inhibition of binding of R(+)-[3H]3-PPP [3]: very potent inhibitors
- affinity for the high affinity sigma site [3]: appreciable affinity
- Kd [3, 11]: 32 nM
- % RH = Percent of high affinity binding sites for two site fit [3, 15]: 63%
- Kd [3, 16]: 4.6 nM
- Kd [3, 17]: 300 nM
- IC50 [4]: 59000 nM

Compound: C=CCN1CCC2(C)c3cc(O)ccc3CC1C2C (single isomer, unassigned; (+)) [(+)SKF10.047, N-allylnormetazocine, reference compound]
- Kd [3, 11]: 1500 nM
- % RH = Percent of high affinity binding sites for two site fit [3, 12]: 60%
- Kd [3, 13]: 48 nM
- Kd [3, 14]: 6300 nM

Compound: CCCCN(C)CC(O)c1ccc2c(c1)CCC2 (centres unmarked) [1-(5-indanyl)-2-amino-N,N-n-butyl-methylethanol]
- CNS-activity [6]: in certain cases and mostly high doses posess a CNS-activity

Compound: OC(CNC1CCCCCC1)c1ccc2c(c1)CCC2 (centres unmarked) [1-(5-indanyl)-2-amino-N-cycloheptyl-ethanol]
- CNS-activity [6]: in certain cases and mostly high doses posess a CNS-activity

Compound: OC(CN1CCN(Cc2ccccc2)CC1)c1ccc2c(c1)CCC2 (centres unmarked) [1-(5-indanyl)-2-amino-N-phenylmethylpiperazinoethanol]
- CNS-activity [6]: in certain cases and mostly high doses posess a CNS-activity

Compound: CC(NCCCCc1ccccc1)C(O)c1ccc2c(c1)CCCS2 (centres unmarked) [Compound 2]
- Kd [2, 10]: 9300 ± 5500 nM
- Kd [3, 18]: 400 nM
- % RH = Percent of high affinity binding sites for two site fit [3, 15]: 72%
- Kd [3, 16]: 150 nM
- Kd [3, 17]: 4300 nM
- SPERMIDINE [3H] TCP IC50 (class symbol: inhibitory at 50 μM) [4]: +

Compound: CC(NCCCCOc1ccccc1)C(O)c1ccc2c(c1)CCCS2 (centres unmarked) [Compound 24]
- Kd [2, 10]: 3700 ± 1100 nM
- Kd [3, 18]: 390 nM
- % RH = Percent of high affinity binding sites for two site fit [3, 15]: 63%
- Kd [3, 16]: 89 nM
- Kd [3, 17]: 3000 nM
- SPERMIDINE [3H] TCP IC50 (class symbol: inhibitory at 50 μM) [4]: +

Compound: CC(C(O)c1ccc2c(c1)CCCS2)N1CCC(Cc2ccccc2)CC1 (centres unmarked) [Compound 26]
- Kd [2, 10]: 12000 nM

Compound: CC(CCCc1ccccc1)NC(C)C(O)c1ccc2c(c1)CCCS2 (centres unmarked) [Compound 42]
- Kd [2, 10]: 2700 ± 400 nM
- SPERMIDINE [3H] TCP IC50 (class symbol: inhibitory at 50 μM) [4]: +

Compound: CC(NCCCc1ccccc1)C(O)c1ccc2c(c1)CCCS2 (centres unmarked) [Compound 75]
- Kd [2, 10]: 5000 ± 1400 nM
- Kd [3, 11]: 340 nM
- % RH = Percent of high affinity binding sites for two site fit [3, 12]: 67%
- Kd [3, 13]: 86 nM
- Kd [3, 14]: 4300 nM
- SPERMIDINE [3H] TCP IC50 (class symbol: inhibitory at 50 μM) [4]: +

Compound: CC(C(O)c1ccc2c(c1)CCS2)N1CCC(Cc2ccccc2)CC1 (centres unmarked) [Compound 186]
- Kd [2, 10]: 6700 ± 1100 nM
- inhibition of binding of R(+)-[3H]3-PPP [3]: very potent inhibitors
- Kd [3, 11]: 30 nM
- % RH = Percent of high affinity binding sites for two site fit [3, 15]: 72%
- Kd [3, 16]: 2.9 nM
- Kd [3, 17]: 600 nM
- SPERMIDINE [3H] TCP IC50 (class symbol: inhibitory at 50 μM) [4]: +

Compound: CC(C(O)c1ccc(O)cc1)N1CCC(Cc2ccccc2)CC1 (centres unmarked) [Ifenprodil, reference compound]
- NMDA receptor antagonism [1]: noncompetitive NMDA receptor antagonists
- affinity for the sigma site in vitro [7]: considerable affinity
- Kd [2, 10]: 150 ± 30 nM
- model describing the interaction with the site labelled by R(+)-[3H]3-PPP [3]: better described by a two-site model
- Kd [3, 11]: 20 nM
- % RH = Percent of high affinity binding sites for two site fit [3, 12]: 82%
- Kd [3, 13]: 11 nM
- Kd [3, 14]: 19000 nM
- sigma binding affinity in vivo [8]: Sigma binding affinity has also been found in vivo
- IC50 [4]: 6800 nM

Compound: CC(CCc1ccccc1)NC(C)C(O)c1ccc(O)cc1 (centres unmarked) [Nylidrin, reference compound]
- Kd [2, 10]: 30000 ± 8500 nM
- model describing the interaction with the site labelled by R(+)-[3H]3-PPP [3]: better described by a two-site model
- Kd [3, 11]: 38 nM
- % RH = Percent of high affinity binding sites for two site fit [3, 12]: 86%
- Kd [3, 13]: 19 nM
- Kd [3, 14]: 11000 nM
- IC50 [4]: 73000 nM

Compound: OC(CN1CCC(Cc2ccc(F)cc2)CC1)c1ccc(Cl)cc1 (centres unmarked) [SL82.0715, reference compound]
- dissociability of [125I]ifenprodil specific binding ([2]; 16.7 μM SL 82.0715): poorly dissociable
- Kd ([2]; n=3, read-out: dissociation constant of SL82.0715 ([125I]ifenprodil binding)): 2300 ± 130 nM
- Kd [2, 10]: 2300 ± 100 nM

Compound: NCCCCNCCCN [spermidine, reference compound]
- Kd [2, 19]: 44000 nM
- effect on binding of channel ligands [9]: profoundly enhance the binding of channel ligands

Compound: NCCCNCCCCNCCCN [spermine, reference compound]
- dissociability of [125I]ifenprodil specific binding ([2]; 1 mM spermine): dissociable
- Kd [2, 19]: 24000 nM
- effect on binding of channel ligands [9]: profoundly enhance the binding of channel ligands
